According to PMC10999543, “Identification of kinase modulators as host-directed therapeutics against intracellular methicillin-resistant Staphylococcus aureus” (Frontiers in Cellular and Infection Microbiology, 2024):
Where two headings read alike, the source gives them in different places.

Columns and labels:
HeLa cells = assay: Compound screen by flow cytometry: HeLa cell count as surrogate readout of cell viability (z-scoreHeLa); format: cell-based, human; conditions: for z-scoreHeLa mean: mean of 3 replicates; for z-scoreHeLa rep 1 / cell count rep 1: replicate 1; for z-scoreHeLa rep 2 / cell count rep 2: replicate 2; for z-scoreHeLa rep 3 / cell count rep 3: replicate 3
Description: (§1) The cells were resuspended in cell culture medium without antibiotics, seeded with 10,000 cells/well into Costar flat-bottom 96-well plates (Corning, Amsterdam, the Netherlands), and were incubated overnight at 37°C/5% CO2. The next day, the bacteria were centrifuged at ≥1800 g for 15 min and resuspended in cold PBS + 5 mM ethylenediaminetetraacetic acid (EDTA). The number of CFUs present in the bacterial suspension was estimated from the optical density at 600 nm (OD600) by assuming 8x10^8 CFUs to be present in a bacterial suspension with OD600 = 1, based on prior titrations. The bacterial suspension was diluted in cell culture medium without antibiotics and added to the cells. Accuracy of the multiplicity of infection (MOI) was validated by plating serial dilutions of the MRSA inoculums on Difco TS agar plates (BD Biosciences). The calculated mean MOI throughout all experiments was 6.8 ± 4.6 (mean ± SD). Infected cells were centrifuged for 3 min at 150 g and incubated for 1 hour at 37°C/5% CO2. Next, the cells were incubated with fresh cell culture medium supplemented with 30 µg/ml gentamicin sulphate (Lonza BioWhittaker, Basel, Switzerland) for 15 min at 37°C/5% CO2 to kill residual extracellular bacteria. Infected cells were incubated overnight at 37°C/5% CO2 in cell culture medium in the presence of kinase inhibitors and 5 µg/ml gentamicin sulphate-containing medium to prevent the growth of extracellular bacteria. The solvent of the compounds, DMSO, was used at equal % v/v as a negative control. For the screen, each compound was tested in triplicate, on separate cell culture plates, resulting in triplicate values for each kinase inhibitor.
(§2) HeLa cells were harvested by trypsinization and fixed with 1% paraformaldehyde. Samples were measured on a FACSLyric with HTS extension (BD Biosciences). Flow cytometry data were analysed using FlowJo version 10 (TreeStar, Ashland, OR, USA). HeLa cells positive for GFP were gated to calculate the percentage of MRSA-infected cells. The cell count was used as surrogate readout of cell viability.
To minimize the possibility that the presence of extreme values on a plate affected the z-scores, raw values that deviated two-fold from the negative controls were excluded when calculating plate means and standard deviations as used in the aforementioned formula. Compounds were considered a “hit” when z-scoreMRSA+ ≤ -2 and z-scoreHeLa ≥ -3 for cell count. In cases where compounds were screened twice, the average values were used to select hit compounds.

intracellular MRSA = format: cell-based, Staphylococcus aureus; conditions: for z-scoreMRSA+ mean: mean of 3 replicates; for z-scoreMRSA+ rep 1 / %GFP+ rep 1: replicate 1; for z-scoreMRSA+ rep 2 / %GFP+ rep 2: replicate 2; for z-scoreMRSA+ rep 3 / %GFP+ rep 3: replicate 3
Description: as §1, §2
To identify potential “hit” compounds, the flow cytometry data were used to calculate standard z-scores using z = (x-μ)/σ – zneg, where x is total event count or the percent of GFP-positive cells from a single well, μ is the mean from wells of the plate, σ is the standard deviation of the plate and zneg is the mean z-score of the negative control of the plate (i.e., DMSO) ([Korbee et al., 2018]). To minimize the possibility that the presence of extreme values on a plate affected the z-scores, raw values that deviated two-fold from the negative controls were excluded when calculating plate means and standard deviations as used in the aforementioned formula. Compounds were considered a “hit” when z-scoreMRSA+ ≤ -2 and z-scoreHeLa ≥ -3 for cell count. In cases where compounds were screened twice, the average values were used to select hit compounds.

[1] = PKIS compound screen, Yes/No call
[2] = PKIS compounds raw data, HeLa cell count
[3] = PKIS compound screen, Yes/No call (effect without cell death)
[4] = PKIS compounds raw data, MRSA-infected HeLa cells
[5] = compound screen, HeLa cell count
[6] = compound screen, MRSA-infected HeLa cells
[7] = PKIS compound screen raw data, HeLa cell count
[8] = PKIS compound screen, HeLa cell count
[9] = PKIS compound screen raw data, MRSA-infected HeLa cells
[10] = PKIS compound screen, MRSA-infected HeLa cells

| Structure (SMILES) | cell death (HeLa cells; [1]) | z-scoreHeLa mean (HeLa cells; PKIS compound screen) | z-scoreHeLa rep 1 (HeLa cells; PKIS compound screen) | z-scoreHeLa rep 2 (HeLa cells; PKIS compound screen) | z-scoreHeLa rep 3 (HeLa cells; PKIS compound screen) | cell count rep 1 (HeLa cells; [2]) | cell count rep 2 (HeLa cells; [2]) | cell count rep 3 (HeLa cells; [2]) | effect (intracellular MRSA; [1]) | hit (intracellular MRSA; [3]) | z-scoreMRSA+ mean (intracellular MRSA; PKIS compound screen) | z-scoreMRSA+ rep 1 (intracellular MRSA; PKIS compound screen) | z-scoreMRSA+ rep 2 (intracellular MRSA; PKIS compound screen) | z-scoreMRSA+ rep 3 (intracellular MRSA; PKIS compound screen) | %GFP+ rep 1 (intracellular MRSA; [4]) [%] | %GFP+ rep 2 (intracellular MRSA; [4]) [%] | %GFP+ rep 3 (intracellular MRSA; [4]) [%] | also measured |
| --- | --- | --- | --- | --- | --- | --- | --- | --- | --- | --- | --- | --- | --- | --- | --- | --- | --- | --- |
| CN1C(=O)C(Nc2ccccc2)=C(c2ccccc2)C1=O [SB-300079] | No | 0.41 | -0.31 | 0.70 | 0.83 | 5536 | 7057 | 6914 | No | No | -0.64 | -0.99 | -0.37 | -0.55 | 22.0 | 24.1 | 24.3 | – |
| COC(=O)c1ccc2c(c1)C(=Cc1cc(Br)c(O)c(Br)c1)C(=O)N2 [GW405841X] | No | 1.55 | 0.63 | 2.17 | 1.84 | 5478 | 7140 | 10804 | No | No | -0.17 | 0.00934 | 0.0349 | -0.56 | 13.2 | 13.6 | 14.0 | – |
| CN(C)C(=O)O[C@@H]1CN[C@@H](C#Cc2cc3ncnc(Nc4ccc(OCc5cccc(F)c5)c(Cl)c4)c3s2)C1 [GSK238063A] | – | – | – | – | – | 3194 | 3723 | 4546 | – | – | – | – | – | – | 8.6 | 9.6 | 9.8 | cell death (HeLa cells; Yes/No call from z-scoreHeLa): No; z-scoreHeLa mean (HeLa cells; [5]): -1.00; z-scoreHeLa rep 1 (HeLa cells; [5]): -1.43; z-scoreHeLa rep 2 (HeLa cells; [5]): -0.41; z-scoreHeLa rep 3 (HeLa cells; [5]): -1.16; effect (intracellular MRSA; Yes/No call from z-scoreMRSA+): No; hit (intracellular MRSA; Yes/No: effect without cell death): No; z-scoreMRSA+ mean (intracellular MRSA; [6]): -1.52; z-scoreMRSA+ rep 1 (intracellular MRSA; [6]): -1.46; z-scoreMRSA+ rep 2 (intracellular MRSA; [6]): -1.30; z-scoreMRSA+ rep 3 (intracellular MRSA; [6]): -1.81 |
| CCn1c(-c2nonc2N)nc2c(C#CC(C)(C)O)nc(OC[C@@H](N)c3ccccc3)cc21 [GSK938890A] | – | – | – | – | – | – | – | – | – | No | – | – | – | – | – | – | – | cell count rep 1 (HeLa cells; [7]): 14299; cell count rep 2 (HeLa cells; [7]): 35410; cell count rep 3 (HeLa cells; [7]): 42196; z-scoreHeLa mean (HeLa cells; [8]): -0.17; z-scoreHeLa rep 1 (HeLa cells; [8]): -0.88; z-scoreHeLa rep 2 (HeLa cells; [8]): 0.12; z-scoreHeLa rep 3 (HeLa cells; [8]): 0.27; cell death (HeLa cells; PKIS compound screen, Yes/No call on z-scoreHeLa): No; %GFP+ rep 1 (intracellular MRSA; [9]): 12.8%; %GFP+ rep 2 (intracellular MRSA; [9]): 14.8%; %GFP+ rep 3 (intracellular MRSA; [9]): 15.1%; z-scoreMRSA+ mean (intracellular MRSA; [10]): -1.38; z-scoreMRSA+ rep 1 (intracellular MRSA; [10]): -1.60; z-scoreMRSA+ rep 2 (intracellular MRSA; [10]): -1.12; z-scoreMRSA+ rep 3 (intracellular MRSA; [10]): -1.43; effect (intracellular MRSA; PKIS compound screen, Yes/No call on z-scoreMRSA+): No |
